Results on eight compounds are retold here after PubChem BioAssay (NCI).

Some test systems named below: RPMI-8226 leukemia; M14 melanoma; NCI-H522 lung; HCT-116 colon; MCF7 breast; T-47D breast; CCRF-CEM leukemia; SK-MEL-2 melanoma; SW-620 colon; RXF 393 renal; PC-3 prostate; SK-OV-3 ovarian; SR leukemia; A549 NSCLC; NCI-H460 lung; OVCAR-4 ovarian; HOP-62 NSCLC.
Experiment in all cases: growth of human tumour cells (NCI), 48 h

Where “and” joins values, the source holds several entries; their conditions need not be identical. Identical values can stand only once.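 These data come from cells grown in 96-well plates and exposed to compound for 48 hours at five concentrations. Abbreviation: GI50, concentration required for 50% inhibition of growth. TGI: total growth inhibition.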

For `O=c1cc(NNc2ccccc2F)[nH]c(=O)[nH]1`, the TGI in the experiment on RPMI-8226 leukemia amounted to 46.2 µM; in the experiment on M14 melanoma, 31.5 µM; in the experiment on NCI-H522 lung, 31.5 µM; with HCT-116 colon, 30.6 µM; in the experiment with MCF7 breast, 21.2 µM; in the experiment on T-47D breast, 18 µM. The TGI in the experiment on CCRF-CEM leukemia was determined as 47.6 µM; in the experiment on SK-MEL-2 melanoma, 30.8 µM; with SW-620 colon, 31.9 µM; in the experiment on RXF 393 renal, 3.29 µM; in the experiment on PC-3 prostate it was 32.9 µM; with SK-OV-3 ovarian, 60.8 µM. Also, the TGI is 7.37 µM in the experiment with SR leukemia, over 100 µM in the experiment on A549 NSCLC, 2.3 µM in the experiment with NCI-H460 lung and 31.5 µM with OVCAR-4 ovarian.

Regarding `COc1ccc(NC(=O)CC(=O)NNC(Sc2ccccc2)c2cc(N=Nc3ccc(Br)cc3)ccc2O)cc1` (stereo unspecified), the TGI in the experiment on RPMI-8226 leukemia, in the experiment on M14 melanoma, in the experiment with NCI-H522 lung, in the experiment with HCT-116 colon, in the experiment with MCF7 breast and with HOP-62 NSCLC was over 10 µM each time. Besides, the TGI with T-47D breast, in the experiment on CCRF-CEM leukemia, in the experiment on SK-MEL-2 melanoma, in the experiment on SW-620 colon, in the experiment on RXF 393 renal and with PC-3 prostate was over 10 µM each time. In addition, the TGI in the experiment with SK-OV-3 ovarian, with SR leukemia, in the experiment with A549 NSCLC, with NCI-H460 lung and in the experiment with OVCAR-4 ovarian was over 10 µM throughout.

For `CC1OC(OC2C(OC(=O)[C@]34CCC(C)(C)C[C@H]3C3=CC[C@@H]5[C@@]6(C)CC[C@H](OC7OC(CO)C(O)C(O)C7OC7OC(CO)C(O)C(O)C7O)C(C)(C)[C@@H]6CC[C@@]5(C)[C@]3(C)CC4)OCC(O)C2O)C(O)C(O)C1OC1OCC(O)C(OC2OCC(O)C(O)C2O)C1O` (stereo partly specified), the TGI was 16.1 µM and 17.4 µM in the experiment with RPMI-8226 leukemia; 3.98 µM and 3.49 µM in the experiment on M14 melanoma; 7.68 µM and 6.53 µM in the experiment on NCI-H522 lung; 16.7 µM and 14 µM with HCT-116 colon; 11 µM and 7.69 µM with MCF7 breast; 23.3 µM and 11.2 µM with HOP-62 NSCLC. In addition, the TGI was 21.8 µM and 16.6 µM with T-47D breast; 30 µM and 31.6 µM in the experiment with CCRF-CEM leukemia; 8.07 µM and 8.23 µM in the experiment on SK-MEL-2 melanoma; 25.3 µM and 23.6 µM in the experiment on SW-620 colon; 20.5 µM and 24.7 µM in the experiment on RXF 393 renal; 17.8 µM and 19.1 µM in the experiment on PC-3 prostate. Further, the TGI with SK-OV-3 ovarian is 25.6 µM and 26.5 µM; with SR leukemia, 8.14 µM and 8.97 µM; with A549 NSCLC, 10.2 µM and 9.72 µM; in the experiment on NCI-H460 lung, 31.9 µM and 40.5 µM; in the experiment on OVCAR-4 ovarian, 19.2 µM and 21.6 µM. Further, the GI50 in the experiment on MCF7 breast is 3.76 µM and 1.87 µM; in the experiment with HOP-62 NSCLC, 9.23 µM and 3.83 µM.

`CC(=O)OCC1OC(n2c(N)c(C#N)c(C)c(C#N)c2=S)C(OC(C)=O)C(OC(C)=O)C1OC(C)=O` (stereo unspecified): the TGI in the experiment on RPMI-8226 leukemia, with M14 melanoma, in the experiment on NCI-H522 lung, with HCT-116 colon, in the experiment on MCF7 breast and in the experiment with HOP-62 NSCLC was over 100 µM each time. Moreover, the TGI in the experiment with T-47D breast, in the experiment with CCRF-CEM leukemia, in the experiment with SK-MEL-2 melanoma, in the experiment with SW-620 colon, with RXF 393 renal and in the experiment with PC-3 prostate was over 100 µM throughout. The TGI in the experiment on SK-OV-3 ovarian, in the experiment on SR leukemia, in the experiment with A549 NSCLC, in the experiment with NCI-H460 lung and in the experiment with OVCAR-4 ovarian was over 100 µM in each case. In addition, in the experiment on SR leukemia, the GI50 is 39.5 µM and > 100 µM.

Regarding `Cc1cc(S(=O)(=O)Nc2n[nH]c(Nc3ccc4ccccc4c3)n2)c(S)cc1Cl`, the TGI is over 100 µM in the experiment with RPMI-8226 leukemia; over 100 µM with M14 melanoma; 84.2 µM in the experiment on NCI-H522 lung; over 100 µM in the experiment on HCT-116 colon; over 100 µM in the experiment with MCF7 breast; over 100 µM in the experiment with HOP-62 NSCLC. Moreover, the TGI in the experiment with T-47D breast was over 100 µM; with CCRF-CEM leukemia, over 100 µM; with SK-MEL-2 melanoma, 73.7 µM; in the experiment on SW-620 colon, over 100 µM; in the experiment on RXF 393 renal it was over 100 µM; in the experiment with PC-3 prostate, over 100 µM. The TGI with SK-OV-3 ovarian, in the experiment with SR leukemia, in the experiment on A549 NSCLC, with NCI-H460 lung and in the experiment on OVCAR-4 ovarian was over 100 µM throughout.

Regarding `CC(C)CCC[C@@H](C)C1CCC2[C@@H]3CCC4C[C@@H](NS(C)(=O)=O)CC[C@]4(C)C3CC[C@@]21C` (stereo partly specified), the TGI in the experiment with RPMI-8226 leukemia, in the experiment with M14 melanoma, in the experiment with NCI-H522 lung, in the experiment on HCT-116 colon, in the experiment with MCF7 breast and with HOP-62 NSCLC was over 100 µM throughout. In addition, the TGI with T-47D breast, in the experiment with CCRF-CEM leukemia, in the experiment on SK-MEL-2 melanoma, in the experiment with SW-620 colon, in the experiment on RXF 393 renal and in the experiment with PC-3 prostate was over 100 µM each time. Further, the TGI in the experiment on SK-OV-3 ovarian, in the experiment on SR leukemia, in the experiment with A549 NSCLC, in the experiment with NCI-H460 lung and in the experiment on OVCAR-4 ovarian was over 100 µM each time.

`CCOC(=O)c1nc2ccccc2nc1Nc1ccc(OC)cc1`: the TGI in the experiment on RPMI-8226 leukemia was over 100 µM; in the experiment with M14 melanoma it was over 100 µM; in the experiment with NCI-H522 lung, over 100 µM; in the experiment with HCT-116 colon, over 100 µM; in the experiment on MCF7 breast, over 100 µM; in the experiment with HOP-62 NSCLC, 30.7 µM. Besides, the TGI with T-47D breast was over 100 µM; in the experiment on CCRF-CEM leukemia it was over 100 µM; in the experiment on SK-MEL-2 melanoma, over 100 µM; in the experiment on SW-620 colon it was over 100 µM; in the experiment on RXF 393 renal, 39.7 µM; in the experiment on PC-3 prostate, over 100 µM. For the same compound, the TGI in the experiment with SR leukemia was over 100 µM; in the experiment with A549 NSCLC, over 100 µM; in the experiment on NCI-H460 lung, over 100 µM; in the experiment with OVCAR-4 ovarian it was 55.7 µM.

Take `CCN(CC)C(=S)SC1C(=O)NC(=O)NC1=O`: the TGI in the experiment with RPMI-8226 leukemia, in the experiment with NCI-H522 lung, with HCT-116 colon, in the experiment on MCF7 breast, with HOP-62 NSCLC and with T-47D breast was over 100 µM throughout. The TGI in the experiment with CCRF-CEM leukemia, with SK-MEL-2 melanoma, with SW-620 colon, with RXF 393 renal, in the experiment on PC-3 prostate and with SK-OV-3 ovarian was over 100 µM in each case. Moreover, the TGI with SR leukemia is over 100 µM; in the experiment on A549 NSCLC, over 100 µM; in the experiment with NCI-H460 lung, 12.7 µM; in the experiment on OVCAR-4 ovarian, over 100 µM.
